The values below come from US12577228B2, “Dihydrocyclopenta-isoquinoline-sulfonamide derivatives compounds” (UCB Biopharma SRL, priority 2019, dated 2026).

What is called IC50 is the concentration that inhibits the measured activity by half.

Each structure is given as a SMILES string.

The target in this assay is T1, IgE-Tb / soluble IgE receptor FcεRIα with a Y131A mutation (Homo sapiens, UniProt P01854, N146Q/N252Q).
T1 construct: fused on or other part: Terbium chelate (LanthaScreen amine-reactive) on IgE-Fc; Alexa Fluor 488 hydrazide on the oxidised glycans of sFcεRIα; Both are labels and no part of the key
Description: in vitro FRET assay: binding of IgE-Tb to receptor FcεRIα-Y131A-AF488 and its inhibition by compounds. The note with it: 5 nM IgE-Tb, 25 nM FcεRIα-Y131A-AF488, 2 hours at room temperature; read-out: FRET IC50 range.

T1 sequence (P01854 104-427 N146Q/N252Q): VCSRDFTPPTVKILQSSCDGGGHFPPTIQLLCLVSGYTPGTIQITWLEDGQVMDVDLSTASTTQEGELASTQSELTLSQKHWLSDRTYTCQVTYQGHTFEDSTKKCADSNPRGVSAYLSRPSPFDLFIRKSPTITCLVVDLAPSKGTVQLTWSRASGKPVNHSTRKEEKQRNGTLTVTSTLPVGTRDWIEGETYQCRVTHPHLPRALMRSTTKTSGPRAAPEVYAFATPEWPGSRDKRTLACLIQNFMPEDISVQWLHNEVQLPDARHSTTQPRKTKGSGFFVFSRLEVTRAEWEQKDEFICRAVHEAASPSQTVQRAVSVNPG
T1 sequence (P12319 26-201 Y156A partner): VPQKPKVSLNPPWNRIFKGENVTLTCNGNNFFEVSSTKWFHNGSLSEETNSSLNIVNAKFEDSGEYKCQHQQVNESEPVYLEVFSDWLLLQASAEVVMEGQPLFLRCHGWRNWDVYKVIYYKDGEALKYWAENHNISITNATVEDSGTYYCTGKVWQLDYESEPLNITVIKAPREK

As to `CC(C)CNS(=O)(=O)c1c2c(cc3cnc(C4CC4)cc13)CNC2` [Example 60, 7-cyclopropyl-N-(2-methylpropyl)-2,3-dihydro-1H-pyrrolo[3,4-g]isoquinoline-9-sulfonamide], the IC50 was 100 to 2000 nM. To `CC(C)(F)CNS(=O)(=O)c1c2c(cc3cnc(C4CC4)cc13)C[C@@H](Nc1ccc(S(N)(=O)=O)nc1)C2` [Example 61, (7R)-3-cyclopropyl-N-(2-fluoro-2-methylpropyl)-7-[(6-sulfamoylpyridin-3-yl)amino]-7,8-dihydro-6H-cyclopenta[g]isoquinoline-5-sulfonamide] belongs 10 to 50 nM. Consider `CC(C)(F)CNS(=O)(=O)c1c2c(cc3cnc(C4CC4)cc13)CC(Nc1cncc3[nH]cnc13)C2` (stereo not drawn) [Example 62, 3-cyclopropyl-N-(2-fluoro-2-methylpropyl)-7-(3H-imidazo[4,5-c]pyridin-7-ylamino)-7,8-dihydro-6H-cyclopenta[g]isoquinoline-5-sulfonamide], for which the IC50 fell in the range of 10 to 50 nM. The same measure for `CC(C)(F)CNS(=O)(=O)c1c2c(cc3cnc(C4CC4)cc13)CC(Nc1cc[nH]c(=O)c1)C2` (stereo not drawn) [Example 63, 3-cyclopropyl-N-(2-fluoro-2-methylpropyl)-7-[(2-oxo-1H-pyridin-4-yl)amino]-7,8-dihydro-6H-cyclopenta[g]isoquinoline-5-sulfonamide]: 10 to 50 nM.

Turning to `CCOC(=O)c1nnc(N[C@@H]2Cc3cc4cnc(C5CC5)cc4c(S(=O)(=O)NCC(C)(C)F)c3C2)s1` [Example 64, ethyl 5-[[(7R)-3-cyclopropyl-5-[(2-fluoro-2-methylpropyl)sulfamoyl]-7,8-dihydro-6H-cyclopenta[g]isoquinolin-7-yl]amino]-1,3,4-thiadiazole-2-carboxylate], the IC50 lay in the range of 10 to 50 nM.

`CC(C)(F)CNS(=O)(=O)c1c2c(cc3nnc(C4CC4)cc13)CC(NC(=O)OC(C)(C)C)C2` (stereo not drawn) [Example 65, tert-butyl N-[3-cyclopropyl-5-[(2-fluoro-2-methylpropyl)sulfamoyl]-7,8-dihydro-6H-cyclopenta[g]cinnolin-7-yl]carbamate]: the 50% inhibitory concentration (IC50) lay in the range of 100 to 2000 nM. With `Cc1nnc(-c2ccc(NC3Cc4cc5nnc(C6CC6)cc5c(S(=O)(=O)NCC(C)(C)F)c4C3)cn2)o1` (stereo not drawn) [Example 66, 3-cyclopropyl-N-(2-fluoro-2-methylpropyl)-7-[[6-(5-methyl-1,3,4-oxadiazol-2-yl)pyridin-3-yl]amino]-7,8-dihydro-6H-cyclopenta[g]cinnoline-5-sulfonamide], the IC50 was 10 to 50 nM.

As to `Cc1nc(C2CC2)cc2c(S(=O)(=O)NCC(C)C)c3c(cc12)CCC3` [Example 67, 3-cyclopropyl-1-methyl-N-(2-methylpropyl)-7,8-dihydro-6H-cyclopenta[g]isoquinoline-5-sulfonamide], the IC50 fell in the range of 100 to 2000 nM. On to `CC(C)CNS(=O)(=O)c1c2c(cc3cnc(C4CC4)cc13)OCO2` [Example 68, 7-cyclopropyl-N-(2-methylpropyl)-[1,3]dioxolo[4,5-g]isoquinoline-9-sulfonamide], for which the IC50 lay within 100 to 2000 nM. For `CC(C)CNS(=O)(=O)c1c2c(cc3cnc(C4CC4)cc13)CCC2` [Example 69, 3-cyclopropyl-N-isobutyl-7,8-dihydro-6H-cyclopenta[g]isoquinoline-5-sulfonamide], the IC50 was in the range of 50 to 100 nM. In the case of `Cc1nnc(-c2ccc(N[C@@H]3Cc4cc5cnc(C6CC6)cc5c(S(=O)(=O)NCC(C)(C)F)c4C3)cc2)o1` [Example 70, (7R)-3-cyclopropyl-N-(2-fluoro-2-methylpropyl)-7-[4-(5-methyl-1,3,4-oxadiazol-2-yl)anilino]-7,8-dihydro-6H-cyclopenta[g]isoquinoline-5-sulfonamide], the IC50 lay in the range of 10 to 50 nM.

Consider `CC(C)(F)CNS(=O)(=O)c1c2c(cc3cnc(C4CC4)cc13)CC(c1nc3c(=O)[nH]ccc3[nH]1)C2` (stereo not drawn) [Example 71, 3-cyclopropyl-N-(2-fluoro-2-methylpropyl)-7-(4-oxo-1,5-dihydroimidazo[4,5-c]pyridin-2-yl)-7,8-dihydro-6H-cyclopenta[g]isoquinoline-5-sulfonamide], for which the IC50 lay in the range of 50 to 100 nM.

Regarding `CC(C)(F)CNS(=O)(=O)c1c2c(cc3cnc(C4CC4)cc13)CN(C(=O)Cc1cccnc1)C2` [Example 72, 7-cyclopropyl-N-(2-fluoro-2-methylpropyl)-2-(2-pyridin-3-ylacetyl)-1,3-dihydropyrrolo[3,4-g]isoquinoline-9-sulfonamide], the IC50 was 100 to 2000 nM. On to `CC(C)(F)CNS(=O)(=O)c1c2c(cc3cnc(C4CC4)cc13)C[C@@H](Nc1ccc(F)nc1)C2` [Example 73, (7R)-3-cyclopropyl-N-(2-fluoro-2-methylpropyl)-7-[(6-fluoropyridin-3-yl)amino]-7,8-dihydro-6H-cyclopenta[g]isoquinoline-5-sulfonamide], for which the IC50 was in the range of 10 to 50 nM. With `O=S(=O)(NC1CC(F)(F)C1)c1c2c(cc3cnc(C4CC4)cc13)CC(Nc1ccc(C3(O)COC3)nc1)C2` (stereo not drawn) [Example 74, 3-cyclopropyl-N-(3,3-difluorocyclobutyl)-7-[[6-(3-hydroxyoxetan-3-yl)pyridin-3-yl]amino]-7,8-dihydro-6H-cyclopenta[g]isoquinoline-5-sulfonamide], the IC50 lay in the range of 10 to 50 nM. To `CC(C)(F)CNS(=O)(=O)c1c2c(cc3cnc(C4CC4)cc13)C[C@@H](Nc1cncc(Oc3cc[nH]c(=O)c3)c1)C2` [Example 75, (7R)-3-cyclopropyl-N-(2-fluoro-2-methylpropyl)-7-[[5-[(2-oxo-1H-pyridin-4-yl)oxy]pyridin-3-yl]amino]-7,8-dihydro-6H-cyclopenta[g]isoquinoline-5-sulfonamide] belongs 10 to 50 nM; to `CC(C)NC(=O)c1ccc(N[C@@H]2Cc3cc4cnc(C5CC5)cc4c(S(=O)(=O)NCC(C)(C)F)c3C2)cn1` [Example 77, 5-[[(7R)-3-cyclopropyl-5-[(2-fluoro-2-methylpropyl)sulfamoyl]-7,8-dihydro-6H-cyclopenta[g]isoquinolin-7-yl]amino]-N-propan-2-ylpyridine-2-carboxamide], 10 to 50 nM; to `Cc1ncccc1-n1cnnc1NC1Cc2cc3cnc(C4CC4)cc3c(S(=O)(=O)NCC(C)(C)F)c2C1` (stereo not drawn) [Example 78, 3-cyclopropyl-N-(2-fluoro-2-methylpropyl)-7-[[4-(2-methylpyridin-3-yl)-1,2,4-triazol-3-yl]amino]-7,8-dihydro-6H-cyclopenta[g]isoquinoline-5-sulfonamide], 100 to 2000 nM. As to `CC(C)(F)CNS(=O)(=O)c1c2c(cc3cnc(C4CC4)cc13)CC(c1ccno1)C2` (stereo not drawn) [Example 79, 3-cyclopropyl-N-(2-fluoro-2-methylpropyl)-7-(1,2-oxazol-5-yl)-7,8-dihydro-6H-cyclopenta[g]isoquinoline-5-sulfonamide], the IC50 was 100 to 2000 nM.

As for `Cc1ccc(NC2Cc3cc4cnc(C5CC5)cc4c(S(=O)(=O)NCC(C)(C)O)c3C2)nn1` (stereo not drawn) [Example 80, 3-cyclopropyl-N-(2-hydroxy-2-methylpropyl)-7-[(6-methylpyridazin-3-yl)amino]-7,8-dihydro-6H-cyclopenta[g]isoquinoline-5-sulfonamide], the IC50 lay in the range of 100 to 2000 nM. In the case of `CC1(C)CC1NS(=O)(=O)c1c2c(cc3cnc(C4CC4)cc13)CC(C(=O)Nc1cccnc1)C2` (stereo not drawn) [Example 81, 3-cyclopropyl-5-[(2,2-dimethylcyclopropyl)sulfamoyl]-N-pyridin-3-yl-7,8-dihydro-6H-cyclopenta[g]isoquinoline-7-carboxamide], the IC50 lay in the range of 100 to 2000 nM.
